In patent US20020094524A1, “Compositions and methods for inhibiting HIV infection” (priority 2000, published 2002):

Tests used:
ADA Env-pseudotyped HIV = assay: Pseudotype reporter virus entry assay, ADA Env; type: cell-based
Description: (§1) Pseudotype reporter virus entry assay: Recombinant luciferase-encoding HIV virions pseudotyped with Env from the M-tropic ADA (CCR5-dependent) and amphitropic murine leukemia virus (MLV) (CCR5-independent) were used to study HIV infection of MDM incubated with or without CP-96,345 or R-113281. The Env-deleted luciferase reporter plasmid PNL-Luc-E-R+ (kindly provided by N. Landau) was cotransfected into 293T cells along with plasmids encoding the ADA or MLV Env genes as previously described (31). Supernatants were collected 48 h later, assayed for p24^Gag antigen content, and frozen at −80° C. MDM (2.5×10^5 cells/well, in 48-well plates) were incubated overnight with or without CP-96,345 or R-113281 and then infected using 20 ng of p24^Gag antigen equivalent of each pseudotype HIV per well, in the presence of polybrene (7.5 μg/ml). At 72 h postinfection, the cells were lysed in 150 μl of 0.5% Triton-X-100 in PBS. Lysate (50 μl) was mixed with an equal volume of luciferase substrate (Promega, […].) and luciferase activity was determined in a microtiter plate luminometer (Dynex Technologies, Chantilly, Va.). The results were expressed as relative light units (RLU) in CP-96,345-treated or R-113281-treated and infected MDM as a percentage of that in untreated and infected MDM.

SP mRNA = SP mRNA expression in MDM (real-time RT-PCR); type: cell-based, human; conditions: 4 hours; indicated concentration (FIG. 17)
Description: FIG. 17. A graph showing the effect of CP-96,345 on SP mRNA expression in MDM. The MDM were incubated with (+) or without (−) the NK-1R antagonist at the indicated concentration for 4 hours. The SP mRNA levels were determined by a real-time RT-PCR. The SP mRNA levels in the CP-96,345 treated MDM are expressed as a percentage of that in untreated MDM which are defined as 100%.
The effect of CP-96,345 on SP mRNA expression in MDM was also determined. The MDM were incubated with (+) or without (−) the NK-1R antagonist at the indicated concentration for 4 hours. The SP mRNA levels were determined by a real-time RT-PCR.

CCR5 = assay: Macrophage receptor expression by flow cytometry; type: cell-based, human
Description: The cells were removed from the culture plate and then resuspended in 100 μl of phosphate-buffered saline (PBS). After incubation with 20 μl of either anti-CCR5-FITC or anti-CXCR4-FITC or anti-CD4-FITC or anti-CD14-FITC for 45 min at 4° C., the cells were washed twice with PBS and fixed with 1% paraformaldehyde in PBS. Fluorescein-conjugated control antibodies were isotype-matched IgG. Fluorescence was analyzed on an EPICS-Elite flow cytometer (Beckman-Coulter Electronics, Hialeah, Fla.).

MLV Env-pseudotyped HIV = assay: Pseudotype reporter virus entry assay, MLV Env; type: cell-based, murine leukemia virus
Description: as §1

R5X4 strain (89.6) = assay: HIV RT activity in MDM infected with R5X4 strain; type: cell-based
Description: (§2) Based upon their differential use of the major HIV co-receptors, HIV isolates have been referred to as R5, X4 or R5X4 strains, respectively (29). The M-tropic (macrophage-tropic) R5 prototype strains (Bal and ADA), dual tropic strain (89.6) and X4 primary isolate (UG024), were obtained from the NIH AIDS Reagent Program. Primary M-tropic isolates (BL-6 and CSF-6) were isolated from the blood and cerebrospinal fluid cells, respectively, of a subject with AIDS.
(§3) The cells were also incubated with SP and/or anti-SP antibody. In this case, SP was incubated with (1:1000 dilution in 10% FCS DMEM) or without anti-SP antibody at room temperature for 10 min and then the mixture was added to the cell cultures for 2 h. When the cells were treated with the combination of CP-96,345 and SP, or CP-96,345, SP and anti-SP antibody, CP-96,345 was incubated with the cell culture for 10 min and then SP was added to the MDM or CP-96,345, SP and anti-SP (1:1000 in 10% FCS DMEM) were incubated for 10 min at room temperature and the mixture was incubated with the MDM for 2 h before infection with HIV. Untreated MDM served as controls. The cells were treated prior to, during, and throughout the infection. […]

X4 strain (UG024) = assay: HIV RT activity in MDM infected with X4 strain; type: cell-based
Description: as §2, §3

IL-6 = IL-6 production in LPS-treated MDM (ELISA); type: cell-based, human; conditions: 10^−9 to 10^−7M; LPS 1 ng/ml; 24 h (FIG. 11)
Description: (§4) In order to determine the role of CP-96,345 in the regulation of cytokine secretion, 7-day-cultured MDM were incubated with or without CP-96,345 (10^−9 to 10^−7M) and/or LPS (1 ng/ml) for 24 h. The culture supernatants were collected to determine TNF-α and IL-6 levels by ELISA. The ELISA kits were purchased from Endogen, Inc. (Woburn, Mass.).

TNF-α = assay: LPS-stimulated TNF-α production in MDM (ELISA); type: cell-based, human; conditions: 10^−9 to 10^−7M; LPS 1 ng/ml; 24 h; concentration-dependent (FIG. 11)
Description: as §4

[1] = tested on: R5 strains (Bal, ADA, CSF-6 and BL-6); assay: HIV RT activity in MDM infected with R5 strains; type: cell-based
Description: as §2, §3

[2] = CP-96,345 10^−8 and 10^−7M overnight (FIG. 10)
[3] = CP-96,345 10^−7M, 8 days after infection (FIG. 6)
[4] = R-113281 10^−7 and 10^−6 overnight (FIG. 13)
[5] = R-113281 10^−6 M, 8 days after infection (FIG. 14)

| SMILES | M-tropic ADA Env-pseudotyped HIV infection of MDM (luciferase activity) (ADA Env-pseudotyped HIV; [2]) | SP mRNA expression in MDM (SP mRNA) | CCR5 receptor expression on MDM (percentage positive cells) (CCR5; overnight/24 h, among CD4, CCR5, CXCR4 and CD14 only CCR5 changed (FIG. 8)) | MLV Env-pseudotyped HIV infection of MDM (luciferase activity) (MLV Env-pseudotyped HIV; [2]) | replication of R5X4 strain 89.6 (RT activity) (R5X4 strain (89.6); [3]) | replication of X4 strain UG024 (RT activity) (X4 strain (UG024); [3]) | IL-6 production in MDM (IL-6) | LPS-stimulated TNF-α production in MDM (TNF-α) | replication of R5 strains (RT activity) [1, 3] | M-tropic ADA Env-pseudotyped HIV infection of MDM (luciferase activity) (ADA Env-pseudotyped HIV; [4]) | CCR5 protein expression (percentage CCR5 positive cells, flow cytometry) (CCR5; R-113281 10^−6M, 24 hours (FIG. 15B)) | MLV-Env pseudotyped HIV infection of MDM (luciferase activity) (MLV Env-pseudotyped HIV; [4]) | replication of R5X4 strain (RT activity) (R5X4 strain (89.6); [5]) | replication of X4 strain (RT activity) (X4 strain (UG024); [5]) | replication of R5 strains (RT activity) [1, 5] |
| --- | --- | --- | --- | --- | --- | --- | --- | --- | --- | --- | --- | --- | --- | --- | --- |
| COc1ccccc1CN[C@H]1C2CCN(CC2)[C@H]1C(c1ccccc1)c1ccccc1 [CP-96,345, 2S, 3S)-cis-2-(diphenylmethyl)-N-[(2-methoxyphenyl)-methyl]-1-azabicyclo[[2.2.2]octan-3-amine] | inhibited | significantly inhibited | down-regulated | failed to block | inhibited to a lesser extent | not affected | not affected | attenuated | inhibited | – | – | – | – | – | – |
| COc1cc(C(=O)N2CCO[C@](CCN3CCC4(CC3)c3ccccc3C[S@+]4[O-])(c3ccc(Cl)c(Cl)c3)C2)cc(OC)c1OC.Cl [R-113281] | – | – | – | – | – | – | – | – | – | inhibited | inhibited | failed to block | inhibited to a lesser extent | not affected | inhibited |
